Data on 30 substances can be found in patent US8940310B2, “Methods of treatment using TLR7 and/or TLR9 inhibitors” (Dynavax Technologies Corporation, priority 2010, dated 2015).

[I] = hypoxanthine (inosine); d = 2'-deoxy (DNA); m = 2'-O-methyl

The test system of the data set is human B-cells. Briefly: Human B-cells cultured in the presence of IRPs, IL-6.
Where [1] appears, read: Experiment # 4, Max Conc 4.0 uM.
The mark [2] stands for this setting: Experiment # 5, Max Conc 4.0 uM.
Where [3] appears, read: Experiment # 6, Max Conc 4.0 uM.
The mark [4] stands for this setting: Experiment # 7, Max Conc 4.0 uM.
The mark [5] stands for this setting: Experiment # 8, Max Conc 2.0 uM.
Setting [6] is: Experiment # 9, Max Conc 2.0 uM.
[7] abbreviates: Experiment # 1, Max Conc 4.0 uM.
[8] abbreviates: Experiment # 11, Max Conc 2.0 uM.
Where [9] appears, read: Experiment # 10, Max Conc 2.0 uM.

Regarding “5′-TGCTCCTGGAGGGGTTGTAAGT-3′ (DNA TGCTCCTGGAGGGGTTGTAAGT; DNA, backbone and methylation of C not given here; further chemistry not fully specified) [SEQ ID NO:67]”, the “Normalized IL-6 Response (Percentage of Positive Control)” value is given as 8% under setting [1], 7% under setting [2], 4% under setting [3] and 8% under setting [4].
Consider “5′-TGCTCCTGGAGGGGTTGTAAGTTTGT-3′ (DNA TGCTCCTGGAGGGGTTGTAAGTTTGT; DNA, backbone and methylation of C not given here; further chemistry not fully specified) [SEQ ID NO:68]”, for which the “Normalized IL-6 Response (Percentage of Positive Control)” value by setting is: under setting [2], 12%; under setting [3], 6%.
As for “5′-TGC TCC TGG AGG GGT TGT-HEG-HEG-3′ (DNA TGCTCCTGGAGGGGTTGTNN; 3' HEG-HEG, chemistry not fully specified) [SEQ ID NO:141]”, the “Normalized IL-6 Response (Percentage of Positive Control)” value is, setting by setting: under setting [1], 8%; under setting [4], 8%.
For “5′-TGC TCC TTG AGG GGT TGT-3′ (DNA TGCTCCTTGAGGGGTTGT; DNA, backbone not given here; further chemistry not fully specified) [SEQ ID NO:69]”, the “Normalized IL-6 Response (Percentage of Positive Control)” value reads like this: under setting [1], 11%; under setting [4], 11%.
For the substance “5′-TGC TCC TTG AGI GGT TGT-3′ (DNA TGCTCCTTGAGNGGTTGT; DNA, [I] at 12, backbone not given here) [SEQ ID NO:71]”, the “Normalized IL-6 Response (Percentage of Positive Control)” value under setting [1] is listed as 12%; the “Normalized IL-6 Response (Percentage of Positive Control)” value under setting [2] is 15%; the “Normalized IL-6 Response (Percentage of Positive Control)” value under setting [3] worked out at 10%; the “Normalized IL-6 Response (Percentage of Positive Control)” value under setting [4] is 12%; the “Normalized IL-6 Response (Percentage of Positive Control)” value under setting [5] was determined as 4%; the “Normalized IL-6 Response (Percentage of Positive Control)” value under setting [6] worked out at 14%.
Consider “5′-TGCTGCTCCTGGAGGGGTTGTTTGT-3′ (DNA TGCTGCTCCTGGAGGGGTTGTTTGT; DNA, backbone and methylation of C not given here; further chemistry not fully specified) [SEQ ID NO:57]”, for which the “Normalized IL-6 Response (Percentage of Positive Control)” value turned out to be 22% under setting [2] and 17% under setting [3].
For “5′-TGCTGCTCCTGGAGGGGTTGT-3′ (DNA TGCTGCTCCTGGAGGGGTTGT; DNA, backbone and methylation of C not given here; further chemistry not fully specified) [SEQ ID NO:60]”, the “Normalized IL-6 Response (Percentage of Positive Control)” value reads like this: under setting [1], 10%; under setting [4], 10%.
In the case of “5′-TGC TGC TCC TGG AGI GGT TGT AAG T-3′ (DNA TGCTGCTCCTGGAGNGGTTGTAAGT; DNA, [I] at 15, backbone and methylation of C not given here) [SEQ ID NO:78]”, the “Normalized IL-6 Response (Percentage of Positive Control)” value runs as follows: under setting [7], 26%; under setting [8], 29%.
In the case of “5′-TGC TGC TCC TGG AGI GGT TGT-3′ (DNA TGCTGCTCCTGGAGNGGTTGT; DNA, [I] at 15, backbone and methylation of C not given here) [SEQ ID NO:66]”, the “Normalized IL-6 Response (Percentage of Positive Control)” value is listed as 20% under setting [7] and 18% under setting [6].
For the substance “5′-TGCTGCTCCTTGAGGGGTTGTTTGT-3′ (DNA TGCTGCTCCTTGAGGGGTTGTTTGT; DNA, backbone and methylation of C not given here; further chemistry not fully specified) [SEQ ID NO:58]”, the “Normalized IL-6 Response (Percentage of Positive Control)” value was 33% under setting [2] and 29% under setting [3].
Turning to “5′-TGCTGCTCCTTGAGGGGTTGT-3′ (DNA TGCTGCTCCTTGAGGGGTTGT; DNA, backbone and methylation of C not given here; further chemistry not fully specified) [SEQ ID NO:59]”, the “Normalized IL-6 Response (Percentage of Positive Control)” value reads like this: under setting [1], 12%; under setting [4], 12%.
For “5′-TGC TGC TCC TTG AGI GGT GTT GT (DNA TGCTGCTCCTTGAGNGGTGTTGT; DNA, [I] at 15, backbone not given here) [SEQ ID NO:179]”, the “Normalized IL-6 Response (Percentage of Positive Control)” value under setting [8] worked out at 40%.
As for “5′-TGC TGC TCC TTG AGI GGT TGT AAG T (DNA TGCTGCTCCTTGAGNGGTTGTAAGT; DNA, [I] at 15, backbone not given here) [SEQ ID NO:181]”, the “Normalized IL-6 Response (Percentage of Positive Control)” value under setting [8] amounted to 38%.
In the case of “5′-TGC TGC TCC TTG AGI GGT TGT TTG T-3′ (DNA TGCTGCTCCTTGAGNGGTTGTTTGT; DNA, [I] at 15, backbone and methylation of C not given here) [SEQ ID NO:62]”, the “Normalized IL-6 Response (Percentage of Positive Control)” value under setting [1] amounted to 49% and the “Normalized IL-6 Response (Percentage of Positive Control)” value under setting [4] worked out at 49%.
In the case of “5′-TGCTTGTCCTGGAGGGGTTGT (DNA TGCTTGTCCTGGAGGGTTGT; listed as DNA, chemistry not fully specified) [SEQ ID NO:204]”, the “Normalized IL-6 Response (Percentage of Positive Control)” value under setting [1] is recorded as 9%.
Turning to “5′-TGC TTG TCC TGG AGI GGT GTT GT-3′ (DNA TGCTTGTCCTGGAGNGGTGTTGT; DNA, [I] at 15, backbone not given here) [SEQ ID NO:65]”, the “Normalized IL-6 Response (Percentage of Positive Control)” value is, setting by setting: under setting [7], 38%; under setting [6], 21%.
As for “5′-TGC TTG TCC TGG AGI GGT TGT AAG T-3′ (DNA TGCTTGTCCTGGAGNGGTTGTAAGT; DNA, [I] at 15, backbone and methylation of C not given here) [SEQ ID NO:64]”, the “Normalized IL-6 Response (Percentage of Positive Control)” value is given as 33% under setting [7] and 19% under setting [5].
Consider “5′-TGC TTG TCC TGG AGI GGT TGT-3′ (DNA TGCTTGTCCTGGAGNGGTTGT; DNA, [I] at 15, backbone and methylation of C not given here) [SEQ ID NO:74]”, for which the “Normalized IL-6 Response (Percentage of Positive Control)” value by setting is: under setting [7], 21%; (Experiment # 2, Max Conc 4.0 uM) 25%; under setting [6], 23%.
For the substance “5′-TGCTTGTCCTGGAGGGGTTGT-3′ (DNA, backbone not given here; further chemistry not fully specified) [SEQ ID NO:43]”, under setting [4], the “Normalized IL-6 Response (Percentage of Positive Control)” value was found to be 9%.
On to “5′-UGC CAA TCC TGG AGI GGT GTT GT (DNA UGCCAATCCTGGAGNGGTGTTGT; sugars from the 5' end m3 d20, [I] at 15, backbone not given here) [SEQ ID NO:135]”, for which the “Normalized IL-6 Response (Percentage of Positive Control)” value under setting [5] was determined as 42%.
Regarding “5′-UGC HEG TCC TGG AGI GGT GTT GT (DNA NNNNTCCTGGAGNGGTGTTGT; HEG spacer, inosine, chemistry not fully specified) [SEQ ID NO:77]”, the “Normalized IL-6 Response (Percentage of Positive Control)” value (Experiment # 3, Max Conc 4.0 uM) is 24%.
On to “5′-UGC TCC TGG AGG GGT TGT (DNA NNNTCCTGGAGGGGTTGT; listed as DNA, chemistry not fully specified) [SEQ ID NO:83]”, for which the “Normalized IL-6 Response (Percentage of Positive Control)” value runs as follows: under setting [1], 6%; under setting [4], 6%.
Turning to “5′-UGC TCC TGG AGG GGU UGU (DNA UGCTCCTGGAGGGGUUGU; sugars from the 5' end m3 d11 m4, backbone not given here) [SEQ ID NO:85]”, the “Normalized IL-6 Response (Percentage of Positive Control)” value was found to be 18% under setting [1] and 18% under setting [4].
In the case of “5′-UGC TGC TCC TGG AGI GGT GTT GT (DNA UGCTGCTCCTGGAGNGGTGTTGT; sugars from the 5' end m3 d20, [I] at 15, backbone not given here) [SEQ ID NO:182]”, the “Normalized IL-6 Response (Percentage of Positive Control)” value under setting [9] turned out to be 53%.
As for “5′-UGC TGC TCC TGG AGI GGT TGT (DNA UGCTGCTCCTGGAGNGGTTGT; sugars from the 5' end m3 d18, [I] at 15, backbone not given here) [SEQ ID NO:125]”, the “Normalized IL-6 Response (Percentage of Positive Control)” value under setting [8] is reported as 38%.
As to “5′-UGC TGC TCC TGG AGI GGT TGT AAG T (DNA UGCTGCTCCTGGAGNGGTTGTAAGT; sugars from the 5' end m3 d22, [I] at 15, backbone not given here) [SEQ ID NO:130]”, under setting [9], the “Normalized IL-6 Response (Percentage of Positive Control)” value came to 49%.
Regarding “5′-UGCTGCTCCTTGAGGGGTTGTTTGT (DNA NNNTGCTCCTTGAGGGGTTGTTTGT; listed as DNA, chemistry not fully specified) [SEQ ID NO:107]”, the “Normalized IL-6 Response (Percentage of Positive Control)” value worked out at 43% under setting [1] and 43% under setting [4].
In the case of “5′-UGCTGCTCCTTGAGGGGTTGUU UG U (DNA UGCTGCTCCTTGAGGGGTTGUUUGU; sugars from the 5' end m3 d16 m6, backbone not given here) [SEQ ID NO:104]”, the “Normalized IL-6 Response (Percentage of Positive Control)” value under setting [1] came out at 7% and the “Normalized IL-6 Response (Percentage of Positive Control)” value under setting [4] worked out at 7%.
Consider “5′-UGC TGC TCC TTG AGI GG (DNA UGCTGCTCCTTGAGNGG; sugars from the 5' end m3 d14, [I] at 15, backbone not given here) [SEQ ID NO:117]”, for which the “Normalized IL-6 Response (Percentage of Positive Control)” value worked out at 17% under setting [2] and 13% under setting [3].
On to “5′-UGC TGC TCC TTG AGI GGT GTT GT (DNA UGCTGCTCCTTGAGNGGTGTTGT; sugars from the 5' end m3 d20, [I] at 15, backbone not given here) [SEQ ID NO:180]”, for which the “Normalized IL-6 Response (Percentage of Positive Control)” value under setting [9] was 46%.
